In PubChem BioAssay (NCI):
“And” between values parts separate entries of the source, which are not always exact repeats. Equal values may be shown once.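 How tested: cells in 96-well plates exposed to compound for 48 hours at five concentrations. The concentration for 50% growth inhibition is given as GI50. At the TGI there is no net growth.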

Columns and labels:
Experiment in all cases: NCI-60 cell line screen, 48 h
[1] = tested on: UACC-257 melanoma
[2] = tested on: SW-620 colon
[3] = tested on: MCF7 breast
[4] = tested on: MDA-MB-435
[5] = tested on: UO-31 renal
[6] = tested on: SF-539 CNS
[7] = tested on: RPMI-8226 leukemia
[8] = tested on: SR leukemia
[9] = tested on: HS 578T breast
[10] = tested on: CCRF-CEM leukemia

Compound	GI50 [1]	TGI [1]	GI50 [2]	TGI [2]	GI50 [3]	TGI [3]	GI50 [4]	TGI [4]	GI50 [5]	TGI [5]	GI50 [6]	TGI [6]	GI50 [7]	TGI [7]	GI50 [8]	TGI [8]	GI50 [9]	TGI [9]	GI50 [10]	TGI [10]
Cc1ccc(NC(=O)CSc2nnc3n(Cc4ccccc4)c(=O)c4c(C)c(C(N)=O)sc4n23)cc1	> 100 µM	> 100 µM	> 100 µM	> 100 µM	> 100 µM	> 100 µM	> 100 µM	> 100 µM	> 100 µM	> 100 µM	21.7 µM	> 100 µM	> 100 µM	> 100 µM	16.4 µM	34.2 µM	5.22 µM	77.6 µM	20.1 µM	46.1 µM
CN1CCN(c2ccc(NC(=O)c3cncnc3Nc3ccc(OCc4ccccn4)c(Cl)c3)cc2)CC1	0.718 µM	1.61 µM	1.14 µM	4.63 µM	2.8 µM	8.53 µM	0.605 µM	1.14 µM	3.89 µM	9.97 µM	1.09 µM	3.64 µM	1.33 µM	6.7 µM	0.742 µM	2.03 µM	4.17 µM	13.5 µM	1.86 µM	10.5 µM
CCC(=O)Nc1ccc(C)c(-c2ccc(C(=O)NCC3CC3)cc2)c1	> 25 µM	> 25 µM	> 25 µM	> 25 µM	> 25 µM	> 25 µM	> 25 µM	> 25 µM	> 25 µM	> 25 µM	> 25 µM	> 25 µM	> 25 µM	> 25 µM	> 25 µM	> 25 µM	> 25 µM	> 25 µM	> 25 µM	> 25 µM
CC(CN(C)C)Oc1ccccc1NC1=C(Cl)C(=O)C(Nc2ccccc2OC(C)CN(C)C)=C(Cl)C1=O (stereo not given)	1.16 µM	2.53 µM	0.175 µM	0.357 µM	0.169 µM	0.41 µM	0.753 µM	2.15 µM	0.437 µM	0.853 µM	1.44 µM	2.76 µM	0.372 µM	1.95 µM	0.265 µM	1.17 µM	1.8 µM	4.53 µM	0.265 µM	0.882 µM
CC1(C)NCCC[C@]2(C)[C@H]3CC[C@@H]4[C@H]5[C@H](C(=O)/C=C/c6ccccn6)CC[C@]5(CO)CC[C@@]4(C)[C@]3(C)CC[C@@H]12	3.99 µM	19 µM	1.82 µM	3.49 µM	1.85 µM	5.8 µM	2.11 µM	4.9 µM	5.7 µM	23.3 µM	1.78 µM	3.6 µM	2.16 µM	5.58 µM	1.81 µM	6.27 µM	4.39 µM	23.6 µM	2.71 µM	11.4 µM
COc1cc(-c2csc(NC(=O)Nc3ccc(C(F)(F)F)cc3)n2)cc(OC)c1OC	2.47 µM	5.91 µM	2.19 µM	5.3 µM	2.21 µM	7.66 µM	1.71 µM	3.74 µM	1.77 µM	5.29 µM	2.28 µM	6.68 µM	2.26 µM	8.69 µM	2.39 µM	6.79 µM	2.17 µM	5.47 µM	3.49 µM	18.9 µM
C/C(=C\c1cc(C(F)(F)F)n(-c2ccc(N)cc2)n1)[C@@H]1C[C@@H]2O[C@]2(C)CCC[C@H](C)[C@H](O)[C@@H](C)C(=O)C(C)(C)[C@@H](O)CC(=O)O1	0.965 µM	> 11.1 µM	0.00554 µM	> 11.1 µM	0.0041 µM	> 11.1 µM	0.00227 µM	0.00567 µM	0.0791 µM	> 11.1 µM	0.025 µM	0.336 µM	< 0.0106 µM	> 11.1 µM	0.0225 µM	2.18 µM	0.0287 µM	0.627 µM	0.0421 µM	> 11.1 µM
C=C1C(=O)O[C@H]2[C@H]1CC/C(COC(=O)C(C)c1ccc(CC(C)C)cc1)=C\CC[C@@]1(C)O[C@@H]21 (stereo not given in full)	1.66 µM	3.32 µM	0.534 µM	1.95 µM	0.791 µM	2.49 µM	1.49 µM	2.92 µM	1.28 µM	2.54 µM	1.6 µM	2.97 µM	0.278 µM	1.19 µM	0.287 µM	1.86 µM	2.04 µM	5.97 µM	0.228 µM	1.03 µM
CC(=O)O[C@H](C[C@H](C(C)C)N(C)C(=O)[C@@H](NC(=O)[C@H]1CCCN1C)C(C)C)c1nc(C(=O)N[C@@H](Cc2ccccc2)C[C@H](C)C(=O)O)c(C)s1	> 16.7 µM	> 16.7 µM	< 0.00167 µM	> 16.7 µM	< 0.00167 µM	> 16.7 µM	< 0.00167 µM	< 0.00167 µM	0.011 µM	> 16.7 µM	< 0.00167 µM	0.0256 µM	< 0.00167 µM	> 16.7 µM	< 0.00167 µM	> 16.7 µM	< 0.00167 µM	> 16.7 µM	< 0.00167 µM	> 16.7 µM
CC(=O)c1c(CO[N+](=O)[O-])n([O-])c2ccccc2[n+]1=O	–	> 100 µM	–	> 100 µM	–	> 100 µM	–	> 100 µM	–	> 100 µM	–	> 100 µM	–	> 100 µM	–	> 100 µM	–	> 100 µM	–	> 100 µM
Oc1ccc(C2c3ccccc3Oc3ccccc32)c2cccnc12	2.76 µM	> 100 µM	1.17 µM	> 100 µM	1.74 µM	> 100 µM	3.07 µM	> 100 µM	1.21 µM	19.7 µM	2.53 µM	25.5 µM	1.7 µM	> 100 µM	1.97 µM	> 100 µM	3.45 µM	> 100 µM	0.738 µM	> 100 µM
Cc1ccc(NS(=O)(=O)c2cccc(C#N)c2)c2[nH]cc(C#N)c12	21.9 µM and 22.5 µM	69.1 µM and 84.7 µM	0.76 µM and 1.7 µM	> 100 µM	2.53 µM and 16.8 µM	> 100 µM	12.3 µM and 8.31 µM	55.1 µM and 67.4 µM	14.7 µM and 9.17 µM	63.8 µM and 56.3 µM	16.8 µM and 21.5 µM	> 81.2 µM	18.1 µM and 10.5 µM	76.6 µM and 52.2 µM	18.2 µM and 6.8 µM	> 100 µM	16.4 µM and 20 µM	78.8 µM and > 96.3 µM	11.9 µM and 14.3 µM	> 100 µM
O=C1/C(=C/c2ccc(Cl)cc2)CCC/C1=C\c1ccc(Cl)cc1	4.17 µM	> 100 µM	2.36 µM	6.39 µM	2.93 µM	> 100 µM	2.78 µM	18.8 µM	10.8 µM	> 100 µM	7.85 µM	> 100 µM	2.1 µM	6.32 µM	2.77 µM	> 100 µM	3.43 µM	> 100 µM	3.64 µM	> 100 µM
